{
  "source": "patent US20230115274A1",
  "about": "“COMPOUNDS AND COMPOSITIONS FOR TREATING CONDITIONS ASSOCIATED WITH STING ACTIVITY” (IFM Due, Inc., priority 2019, published 2023)",
  "data": [
    {"target": "T1, hSTING (Homo sapiens, UniProt Q86WV6, G230A/H232R/R293Q/R71H)", "T1 construct": "host or cells: THP1-Dual KO-IFNAR2 cells", "T1 sequence (Q86WV6 whole entry R71H/G230A/H232R/R293Q)": "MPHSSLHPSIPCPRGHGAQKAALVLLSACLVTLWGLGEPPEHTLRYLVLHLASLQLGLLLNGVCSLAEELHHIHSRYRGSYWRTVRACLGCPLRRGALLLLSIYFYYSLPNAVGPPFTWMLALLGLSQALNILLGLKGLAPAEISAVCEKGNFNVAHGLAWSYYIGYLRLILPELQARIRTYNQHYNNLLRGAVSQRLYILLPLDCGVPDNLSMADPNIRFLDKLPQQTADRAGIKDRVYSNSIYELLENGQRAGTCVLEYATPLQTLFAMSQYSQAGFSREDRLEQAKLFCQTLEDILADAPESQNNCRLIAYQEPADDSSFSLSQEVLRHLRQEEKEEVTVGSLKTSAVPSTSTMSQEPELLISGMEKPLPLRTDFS", "assay": "STING reporter assay (luciferase) in THP1-Dual KO-IFNAR2 cells stimulated with 2′3′cGAMP", "assay_type": "cell-based", "details": "2′3′cGAMP 15 μM, 24 h, class symbols", "method_in_brief": "(§1)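 THP1-Dual KO-IFNAR2 cells (2×10E6 cells/mL) were treated with compound at 0.0017-100 μM final plus 15 μM final 2′3′cGAMP delivered with Lipofectamine 2000. After 24 h at 37° C., secreted luciferase in supernatant was read by QUANTI-Luc luminescence and EC50 values were fitted.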", "units": {"EC50": "µM"}, "values": [
      {"smiles": "O=C(Nc1cnc(N2CCC(F)(F)CC2)cn1)Nc1c[nH]c2ncc(F)cc12", "note": "[Compound 191, 1-(5-(4,4-difluoropiperidin-1-yl)pyrazin-2-yl)-3-(5-fluoro-1H-pyrrolo[2,3-b]pyridin-3-yl)urea]", "EC50": "0.2 to 1"},
      {"smiles": "Cc1cc(NC(=O)Nc2c[nH]c3ncc(F)cc23)cnc1N1CCC2(CC1)CC2", "note": "[Compound 192, 1-(5-fluoro-1H-pyrrolo[2,3-b]pyridin-3-yl)-3-(5-methyl-6-(6-azaspiro[2.5]octan-6-yl)pyridin-3-yl)urea]", "EC50": "0.04 to 0.2"},
      {"smiles": "O=C(Nc1ccc(N2CCC(F)(F)CC2)nn1)Nc1c[nH]c2ncc(F)cc12", "note": "[Compound 193, 1-(6-(4,4-difluoropiperidin-1-yl)pyridazin-3-yl)-3-(5-fluoro-1H-pyrrolo[2,3-b]pyridin-3-yl)urea]", "EC50": "5 to 100"},
      {"smiles": "COC1CCN(c2ncc(NC(=O)Nc3c[nH]c4ncc(F)cc34)cc2C)CC1", "note": "[Compound 194, 1-(5-fluoro-1H-pyrrolo[2,3-b]pyridin-3-yl)-3-(6-(4-methoxypiperidin-1-yl)-5-methylpyridin-3-yl)urea]", "EC50": "1 to 5"},
      {"smiles": "N#Cc1cc(NC(=O)Nc2c[nH]c3ncc(F)cc23)ccc1C1CCC(F)(F)CC1", "note": "[Compound 195, 1-(3-cyano-4-(4,4-difluorocyclohexyl)phenyl)-3-(5-fluoro-1H-pyrrolo[2,3-b]pyridin-3-yl)urea]", "EC50": "0.04 to 0.2"},
      {"smiles": "O=C(Nc1cnc(N2CCCCC2)c(Cl)c1)Nc1c[nH]c2ncc(F)cc12", "note": "[Compound 196, 1-(5-chloro-6-(piperidin-1-yl)pyridin-3-yl)-3-(5-fluoro-1H-pyrrolo[2,3-b]pyridin-3-yl)urea]", "EC50": "0.2 to 1"},
      {"smiles": "Cc1cc(NC(=O)Nc2c[nH]c3ncc(F)cc23)cnc1N1CCC(F)(F)CC1", "note": "[Compound 198, 1-(6-(4,4-difluoropiperidin-1-yl)-5-methylpyridin-3-yl)-3-(5-fluoro-1H-pyrrolo[2,3-b]pyridin-3-yl)urea]", "EC50": "0.04 to 0.2"},
      {"smiles": "O=C(Nc1cnc(C2CCC(F)(F)CC2)c(Cl)c1)Nc1c[nH]c2ncc(F)cc12", "note": "[Compound 199, 1-(5-chloro-6-(4,4-difluorocyclohexyl)pyridin-3-yl)-3-(5-fluoro-1H-pyrrolo[2,3-b]pyridin-3-yl)urea]", "EC50": "0.2 to 1"},
      {"smiles": "O=C(Nc1ccc(C2CC(F)(F)C2)c(F)c1)Nc1c[nH]c2ncc(F)cc12", "note": "[Compound 201, 1-(4-(3,3-difluorocyclobutyl)-3-fluorophenyl)-3-(5-fluoro-1H-pyrrolo[2,3-b]pyridin-3-yl)urea]", "EC50": "0.2 to 1"},
      {"smiles": "COc1ccc2[nH]cc(NC(=O)Nc3cnc(N4CCC5(CC4)CC(F)(F)C5)c(Cl)c3)c2n1", "note": "[Compound 203, 1-(5-chloro-6-(2,2-difluoro-7-azaspiro[3.5]nonan-7-yl)pyridin-3-yl)-3-(5-methoxy-1H-pyrrolo[3,2-b]pyridin-3-yl)urea]", "EC50": "0.2 to 1"},
      {"smiles": "O=C(Nc1ccc(C2CCC(F)(F)CC2)nc1)Nc1c[nH]c2ccc(OCCC(F)(F)F)nc12", "note": "[Compound 204, 1-(6-(4,4-difluorocyclohexyl)pyridin-3-yl)-3-(5-(3,3,3-trifluoropropoxy)-1H-pyrrolo[3,2-b]pyridin-3-yl)urea]", "EC50": "1 to 5"},
      {"smiles": "O=C(Nc1cnc(N2CCC3(CC2)CCC(F)(F)CO3)c(Cl)c1)Nc1c[nH]c2cccnc12", "note": "[Compound 207, 1-(5-chloro-6-(3,3-difluoro-1-oxa-9-azaspiro[5.5]undecan-9-yl)pyridin-3-yl)-3-(1H-pyrrolo[3,2-b]pyridin-3-yl)urea]", "EC50": "5 to 100"},
      {"smiles": "O=C(Nc1cnc(N2CCC(F)(F)CC2)c(Cl)c1)Nc1c[nH]c2ccc(OCC(F)(F)F)nc12", "note": "[Compound 208, 1-(5-chloro-6-(4,4-difluoropiperidin-1-yl)pyridin-3-yl)-3-(5-(2,2,2-trifluoroethoxy)-1H-pyrrolo[3,2-b]pyridin-3-yl)urea]", "EC50": "0.2 to 1"},
      {"smiles": "COCCOc1ccc2[nH]cc(NC(=O)Nc3cnc(C4CCC(F)(F)CC4)c(F)c3)c2n1", "note": "[Compound 210, 1-(6-(4,4-difluorocyclohexyl)-5-fluoropyridin-3-yl)-3-(5-(2-methoxyethoxy)-1H-pyrrolo[3,2-b]pyridin-3-yl)urea]", "EC50": "0.2 to 1"},
      {"smiles": "COCCOc1ccc2[nH]cc(NC(=O)Nc3cnc(C4CCC(F)(F)CC4)c(Cl)c3)c2n1", "note": "[Compound 211, 1-(5-chloro-6-(4,4-difluorocyclohexyl)pyridin-3-yl)-3-(5-(2-methoxyethoxy)-1H-pyrrolo[3,2-b]pyridin-3-yl)urea]", "EC50": "0.2 to 1"},
      {"smiles": "COCCOc1ccc2[nH]cc(NC(=O)Nc3ccc(C4CCC(F)(F)CC4)nc3)c2n1", "note": "[Compound 212, 1-(6-(4,4-difluorocyclohexyl)pyridin-3-yl)-3-(5-(2-methoxyethoxy)-1H-pyrrolo[3,2-b]pyridin-3-yl)urea]", "EC50": "1 to 5"},
      {"smiles": "COc1ccc2[nH]cc(NC(=O)Nc3ccc(C4CCC(F)(F)CC4)nc3)c2n1", "note": "[Compound 213, 1-(6-(4,4-difluorocyclohexyl)pyridin-3-yl)-3-(5-methoxy-1H-pyrrolo[3,2-b]pyridin-3-yl)urea]", "EC50": "0.2 to 1"},
      {"smiles": "O=C(Nc1cnc(Cl)c(C2CCC(F)(F)CC2)c1)Nc1c[nH]c2cccnc12", "note": "[Compound 214, 1-(6-chloro-5-(4,4-difluorocyclohexyl)pyridin-3-yl)-3-(1H-pyrrolo[3,2-b]pyridin-3-yl)urea]", "EC50": "5 to 100"},
      {"smiles": "O=C(Nc1cnc(N2CCC3(CCCCO3)CC2)c(Cl)c1)Nc1c[nH]c2cccnc12", "note": "[Compound 215, 1-(5-chloro-6-(1-oxa-9-azaspiro[5.5]undecan-9-yl)pyridin-3-yl)-3-(1H-pyrrolo[3,2-b]pyridin-3-yl)urea]", "EC50": "1 to 5"},
      {"smiles": "O=C(Nc1cnc(C2CCN(CC(F)(F)F)C2)c(Cl)c1)Nc1c[nH]c2cccnc12", "note": "(centres unmarked) [Compound 216, 1-(5-chloro-6-(1-(2,2,2-trifluoroethyl)pyrrolidin-3-yl)pyridin-3-yl)-3-(1H-pyrrolo[3,2-b]pyridin-3-yl)urea]", "EC50": "1 to 5"},
      {"smiles": "O=C(Nc1cc(Cl)nc(C2CCC(F)(F)CC2)c1)Nc1c[nH]c2cccnc12", "note": "[Compound 217, 1-(2-chloro-6-(4,4-difluorocyclohexyl)pyridin-4-yl)-3-(1H-pyrrolo[3,2-b]pyridin-3-yl)urea]", "EC50": "1 to 5"},
      {"smiles": "COCCOc1ccc2[nH]cc(NC(=O)Nc3cnc(N4CCC(F)(F)CC4)c(Cl)c3)c2n1", "note": "[Compound 218, 1-(5-chloro-6-(4,4-difluoropiperidin-1-yl)pyridin-3-yl)-3-(5-(2-methoxyethoxy)-1H-pyrrolo[3,2-b]pyridin-3-yl)urea]", "EC50": "0.2 to 1"},
      {"smiles": "O=C(Nc1ccc(C2CC(F)(F)C2)c(Cl)c1)Nc1c[nH]c2cccnc12", "note": "[Compound 219, 1-(3-chloro-4-(3,3-difluorocyclobutyl)phenyl)-3-(1H-pyrrolo[3,2-b]pyridin-3-yl)urea]", "EC50": "0.2 to 1"},
      {"smiles": "O=C(Nc1cnc(N2CCC3(CC2)CC3)c(Cl)c1)Nc1c[nH]c2cccnc12", "note": "[Compound 221, 1-(5-chloro-6-(6-azaspiro[2.5]octan-6-yl)pyridin-3-yl)-3-(1H-pyrrolo[3,2-b]pyridin-3-yl)urea]", "EC50": "0.2 to 1"},
      {"smiles": "O=C(Nc1cnc(C2CCN(CC(F)(F)F)CC2)c(Cl)c1)Nc1c[nH]c2cccnc12", "note": "[Compound 222, 1-(5-chloro-6-(1-(2,2,2-trifluoroethyl)piperidin-4-yl)pyridin-3-yl)-3-(1H-pyrrolo[3,2-b]pyridin-3-yl)urea]", "EC50": "0.2 to 1"},
      {"smiles": "O=C(Nc1cnc(N2CC3(C2)CC(F)(F)C3)c(Cl)c1)Nc1c[nH]c2cccnc12", "note": "[Compound 223, 1-(5-chloro-6-(6,6-difluoro-2-azaspiro[3.3]heptan-2-yl)pyridin-3-yl)-3-(1H-pyrrolo[3,2-b]pyridin-3-yl)urea]", "EC50": "0.2 to 1"},
      {"smiles": "O=C(Nc1cnc(N2CC3(CN(CC(F)(F)F)C3)C2)c(Cl)c1)Nc1c[nH]c2cccnc12", "note": "[Compound 224, 1-(5-chloro-6-(6-(2,2,2-trifluoroethyl)-2,6-diazaspiro[3.3]heptan-2-yl)pyridin-3-yl)-3-(1H-pyrrolo[3,2-b]pyridin-3-yl)urea]", "EC50": "5 to 100"},
      {"smiles": "O=C(Nc1cnc(N2CCN(CCC(F)(F)F)CC2)c(Cl)c1)Nc1c[nH]c2cccnc12", "note": "[Compound 225, 1-(5-chloro-6-(4-(3,3,3-trifluoropropyl)piperazin-1-yl)pyridin-3-yl)-3-(1H-pyrrolo[3,2-b]pyridin-3-yl)urea]", "EC50": "1 to 5"},
      {"smiles": "O=C(Nc1cnc(N2CCC3(CC2)CC(F)(F)C3)c(Cl)c1)Nc1c[nH]c2cccnc12", "note": "[Compound 226, 1-(5-chloro-6-(2,2-difluoro-7-azaspiro[3.5]nonan-7-yl)pyridin-3-yl)-3-(1H-pyrrolo[3,2-b]pyridin-3-yl)urea]", "EC50": "0.2 to 1"},
      {"smiles": "O=C(Nc1cnc(N2CCN(CC(F)(F)F)CC2)c(Cl)c1)Nc1c[nH]c2cccnc12", "note": "[Compound 227, 1-(5-chloro-6-(4-(2,2,2-trifluoroethyl)piperazin-1-yl)pyridin-3-yl)-3-(1H-pyrrolo[3,2-b]pyridin-3-yl)urea]", "EC50": "0.2 to 1"}
    ]},
    {"target": "T1, hSTING", "assay": "STING reporter assay (luciferase) in THP1-Dual KO-IFNAR2 cells stimulated with 2′3′cGAMP", "assay_type": "cell-based", "details": "2′3′cGAMP 15 μM, 24 h, numeric bounds", "method_in_brief": "as §1", "units": {"EC50": "µM"}, "values": [
      {"smiles": "CS(=O)(=O)n1cc(NC(=O)Nc2ccc(C3CCC(F)(F)CC3)nc2)c2cc(F)cnc21", "note": "[Compound 197, 1-(6-(4,4-difluorocyclohexyl)pyridin-3-yl)-3-(5-fluoro-1-(methylsulfonyl)-1H-pyrrolo[2,3-b]pyridin-3-yl)urea]", "EC50": "> 30"},
      {"smiles": "O=C(Nc1cnn(C2CCC(F)(F)CC2)c1)Nc1c[nH]c2cccnc12", "note": "[Compound 205, 1-(1-(4,4-difluorocyclohexyl)-1H-pyrazol-4-yl)-3-(1H-pyrrolo[3,2-b]pyridin-3-yl)urea]", "EC50": "> 30"},
      {"smiles": "O=C(Nc1cnn(CC2CCC(F)(F)CC2)c1)Nc1c[nH]c2cccnc12", "note": "[Compound 206, 1-(1-((4,4-difluorocyclohexyl)methyl)-1H-pyrazol-4-yl)-3-(1H-pyrrolo[3,2-b]pyridin-3-yl)urea]", "EC50": "> 30"},
      {"smiles": "COc1ccc2[nH]cc(NC(=O)Nc3cnn(C4CCC(F)(F)CC4)c3)c2n1", "note": "[Compound 209, 1-(1-(4,4-difluorocyclohexyl)-1H-pyrazol-4-yl)-3-(5-methoxy-1H-pyrrolo[3,2-b]pyridin-3-yl)urea]", "EC50": "> 30"},
      {"smiles": "O=C(Nc1ccc(N2CCC(F)(F)CC2)nc1)Nc1c[nH]c2cccnc12", "note": "[Compound 220, 1-(6-(4,4-difluoropiperidin-1-yl)pyridin-3-yl)-3-(1H-pyrrolo[3,2-b]pyridin-3-yl)urea]", "EC50": "> 30"}
    ]}
  ]
}
